# Test results: US8097643B2, “Indol-4 sulfonamide derivatives, their preparation and their use 5-ht-6 as modulators” (Laboratorios del Dr. Esteve S. A., priority 2003, dated 2012)
# Columns and labels:
# [1] = target: T1, recombinant human 5HT6 receptor (Homo sapiens, UniProt P50406); assay: Binding to the 5HT6 serotonin receptor ([3H]-LSD radioligand); details: 10^−6 M compound; [3H]-LSD 2.7 nM; HEK-293 cell membranes
# T1 construct: purchased Receptor Biology; host or cells: HEK-293 cell membranes
# T1 sequence (P50406 whole entry): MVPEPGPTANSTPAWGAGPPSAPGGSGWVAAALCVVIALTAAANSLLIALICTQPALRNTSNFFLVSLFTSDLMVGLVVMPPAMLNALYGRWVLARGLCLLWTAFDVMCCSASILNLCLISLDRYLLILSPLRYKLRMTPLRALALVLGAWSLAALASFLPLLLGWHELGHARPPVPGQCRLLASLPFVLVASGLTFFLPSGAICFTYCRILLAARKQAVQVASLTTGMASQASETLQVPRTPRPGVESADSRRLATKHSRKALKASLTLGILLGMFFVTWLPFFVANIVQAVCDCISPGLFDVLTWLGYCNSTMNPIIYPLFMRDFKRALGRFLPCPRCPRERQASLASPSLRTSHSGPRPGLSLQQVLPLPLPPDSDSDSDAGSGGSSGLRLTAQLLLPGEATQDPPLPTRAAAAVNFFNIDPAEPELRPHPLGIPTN
# Description: Binding to the 5Ht6 Serotonin Receptor
# HEK-293 cell membranes expressing the recombinant human 5HT6 receptor were supplied by Receptor Biology. […] Incubation ends by quick filtration in a Harvester Brandel Cell through fiberglass filters of the Schleicher & Schuell GF 3362 trademark, pretreated with a 0.5% polyethyleneimine solution. […] The vials are left to equilibrate for several hours prior to their counting in a 1414 Wallac Winspectral scintillation counter. […] The assays are carried out in triplicate. The inhibition constants (Ki, nM) are calculated by non-linear regression analysis using the EBDA/LIGAND program [Munson and Rodbard, Analytical Biochemistry, 1980, 107, 220].
# Binding of the new compounds of general formula (Ia and Ib and Ic) to the 5-HT6 receptor was determined as previously described.
Molecule,melting point,% Inhibition 10^−6 M [1],inhibition at 1 µM [1]
N-[1-(2-dimethylaminoethyl)-1H-indole-4-yl]-naphtalene-2-sulfonamide [Example 2],–,104.3%,–
N-[1-(2-dimethylaminoethyl)-1H-indole-4-yl]-naphtalene-1-sulfonamide [Example 3],–,94.8%,–
"CN(C)CCn1ccc2c(NS(=O)(=O)c3cc(Cl)cc(Cl)c3)cccc21 [Example 7, N-[1-(2-dimethylaminoethyl)-1H-indole-4-yl]-3,5-dichlorobenzenesulfonamide]",113 to 118 °C,–,72.3%
"Cc1c(S(=O)(=O)Nc2cccc3c2ccn3CCN(C)C)sc2ccc(Cl)cc12 [Example 1, N-[1-(2-dimethylaminoethyl)-1H-indole-4-yl]-5-chloro-3-methyl-benzo[b]thiophene-2-sulfonamide]",78 to 80 °C,–,–

# Now from value to molecule, other results behind:
melting point,Molecule,% Inhibition 10^−6 M [1],inhibition at 1 µM [1]
47 to 54 °C,"CN(C)CCn1ccc2c(NS(=O)(=O)CCc3cccc4ccccc34)cccc21 [Example 5, N-[1-(2-dimethylaminoethyl)-1H-indole-4-yl]-2-(naphthalene-1-yl)-ethanesulfonamide]",–,–
137 to 140 °C,"CN(C)CCn1ccc2c(NS(=O)(=O)c3ccc(-c4ccccc4)cc3)cccc21 [Example 4, N-[1-(2-dimethylaminoethyl)-1H-indole-4-yl]-4phenylbenzenesulfonamide]",–,–
